Experiment: Test on solubility to polyethylene glycol (visual check for insoluble luliconazole)
Format: physicochemical
Method: Examined was how luliconazole is dissolved by polyethylene glycol 200 having an average molecular weight of 190 to 210, polyethylene glycol 300 having an average molecular weight of 285 to 315, polyethylene glycol 400 having an average molecular weight of 380 to 420, and polyethylene glycol 600 having an average molecular weight of 570 to 630, each of which is represented by the formula HOCH2(CH2OCH2)nCH2OH (where n is an integer). To this end, the above polyethylene glycols (manufactured by NOF Corporation) were mixed with luliconazole according to the formulation presented in Table 1 below, and the properties of the solution (presence of insoluble matter (luliconazole)) were visually evaluated.

solubility for luliconazole (in polyethylene glycol 400 compared to polyethylene glycol 200, 300 and 600): highest solubility
solubility for luliconazole (in polyethylene glycols 200, 300, 400, and 600): high solubility
Compound: N#C/C(=C1/SC[C@@H](c2ccc(Cl)cc2Cl)S1)n1ccnc1 [luliconazole, (R)-(−)-(E)-[4-(2,4-dichlorophenyl)-1,3-dithiolane-2-ylidene]-1-imidazolylacetonitrile]

Source: patent publication US11738006B2, “Pharmaceutical composition containing antifungal agent as active ingredient” (priority 2019, dated 2023)
